Drawing on ChEMBL document CHEMBL1134998, “A novel synthesis of 7-aryl-8-fluoro-pyrrolo[1,2-a]pyrimid-4-ones as potent, stable GnRH receptor antagonists” (Bioorg Med Chem Lett, 2002), this text covers Ki for 6 compounds.

The target in this test is T1, Gonadotropin-releasing hormone receptor (Homo sapiens, UniProt P30968).
T1 sequence (P30968 whole entry): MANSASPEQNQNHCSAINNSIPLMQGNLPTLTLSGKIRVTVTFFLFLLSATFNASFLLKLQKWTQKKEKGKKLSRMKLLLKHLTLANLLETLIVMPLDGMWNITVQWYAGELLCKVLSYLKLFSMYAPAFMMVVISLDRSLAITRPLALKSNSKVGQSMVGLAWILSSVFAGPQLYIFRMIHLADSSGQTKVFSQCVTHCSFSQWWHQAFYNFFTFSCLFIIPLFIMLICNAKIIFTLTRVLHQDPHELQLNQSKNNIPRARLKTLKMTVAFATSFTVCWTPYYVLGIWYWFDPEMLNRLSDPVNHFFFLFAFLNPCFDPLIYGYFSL
In words: Binding affinity towards human Gonadotropin-releasing hormone receptor.
`CCOC(=O)c1cn(Cc2ccccc2F)c2c(F)c(-c3cccc(OC)c3)c(CN(C)Cc3ccco3)n2c1=O` returned a Ki of 24000 nM.

The compound `CCOC(=O)c1cn(Cc2ccccc2F)c2c(F)c(-c3cccc(OC)c3)c(CN(C)Cc3ccccc3)n2c1=O` had an inhibitory constant (Ki) of 2600 nM.

Regarding `CCOC(=O)c1cn(Cc2ccccc2F)c2c(F)c(-c3ccc(OCC(C)C)cc3)c(CN(C)Cc3ccccc3)n2c1=O`, the affinity, expressed as Ki, was 42 nM.

The compound `CCOC(=O)c1cn(Cc2ccccc2F)c2c(F)c(-c3ccc(OCC(C)C)cc3)c(CN(C)Cc3ccco3)n2c1=O` displayed a Ki of 92 nM.

`CCOC(=O)c1cn(Cc2ccccc2F)c2c(F)c(-c3cccc(OC)c3)c(CN(C)CCc3ccccn3)n2c1=O` showed an inhibition constant (Ki) of 200 nM.

In turn, `CCOC(=O)c1cn(Cc2ccccc2F)c2c(F)c(-c3ccc(OCC(C)C)cc3)c(CN(C)CCc3ccccn3)n2c1=O` returned a Ki of 9 nM.
